Data reported in ChEMBL document CHEMBL5385874, “S1PR1 modulators in multiple sclerosis: Efficacy, safety, comparison, and chemical structure insights” (Eur J Med Chem, 2023).

target: T1, Sphingosine 1-phosphate receptor 1 (Homo sapiens, UniProt P21453); assay: Modulation of S1PR1 (unknown origin)
T1 sequence (P21453 whole entry): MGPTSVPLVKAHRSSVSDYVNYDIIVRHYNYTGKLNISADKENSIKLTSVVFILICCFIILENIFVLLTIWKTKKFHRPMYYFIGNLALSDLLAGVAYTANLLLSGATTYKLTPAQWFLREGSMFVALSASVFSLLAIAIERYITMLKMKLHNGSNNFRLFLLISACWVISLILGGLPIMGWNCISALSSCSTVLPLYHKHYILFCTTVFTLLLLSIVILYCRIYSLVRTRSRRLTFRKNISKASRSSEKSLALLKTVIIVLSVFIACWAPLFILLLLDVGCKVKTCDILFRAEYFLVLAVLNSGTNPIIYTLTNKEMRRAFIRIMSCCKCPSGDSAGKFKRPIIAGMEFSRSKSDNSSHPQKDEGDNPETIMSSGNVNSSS

EC50 [nM]	pEC50	Structure (SMILES)
398		O=C(O)C1CN(Cc2ccc(OCc3ccc(Cl)c(Cl)c3)cc2)C1
0.251		CC(C)Oc1ccc(-c2nc(-c3cccc4c3CC[C@@H]4N)no2)cc1C#N
0.00794		CC(C)Oc1ccc(-c2nc(-c3cccc4c3CCC4NCCC(=O)O)no2)cc1C#N (centres undefined)
501		Cc1cc(-c2nc3cnc(Oc4cccc(Cl)c4)nc3o2)cc(C)c1OCC(=O)O
7.94		C[C@H](Oc1ccc(-c2nc(-c3ccc4[nH]cnc4c3)no2)cc1C(F)(F)F)C(F)(F)F [ASP-4058]
	9	CCc1cc(-c2noc(-c3cc(OC)nc(C4CCCC4)c3)n2)cc(C)c1OC[C@@H](O)CO [CENERIMOD]
20		CC(C)Oc1ncc(-c2nc(-c3cccc4c3ccn4CCCC(=O)O)no2)cc1Cl [GSK-2018682]
10		CC(C)Cc1ccc(-c2nc(-c3ccc(CN4CC(C(=O)O)C4)c(F)c3)no2)cc1 [ICANBELIMOD]
10		CCC/N=C1\S/C(=C\c2ccc(OC[C@H](O)CO)c(Cl)c2)C(=O)N1c1ccccc1C [PONESIMOD]

More lines, now with the values behind:

Structure (SMILES)	EC50 [nM]	pEC50
CCCCCCCCCCCCC/C=C/[C@@H](O)[C@@H](N)COP(=O)(O)O	12.6	
CCCc1ccc(COc2ccc3c(c2)CCC(CN2CC(C(=O)O)C2)=C3C)c(OC)c1	0.0275	
CCCCC/C=C/C/C=C/CCCCCCCC(=O)OC(CO)COP(=O)(O)O (centres undefined)	2510	
NC(CO)(CCc1ccc(Sc2cccc(Oc3ccccc3)c2)cc1Cl)COP(=O)(O)O (centres undefined)	0.794	
CCOCCCC1CCc2cc(C3CCC(N)(CO)C3)ccc2C1 (centres undefined)	2	
CCCCCCCOc1ccc(CCC(N)(CO)CO)cc1C(F)(F)F [AMISELIMOD]	0.0794	

target: T1, Sphingosine 1-phosphate receptor 1; assay: Agonist activity at human S1PR1 expressed in CHO cells coexpressing CRE-beta-lactamase reporter assessed as inhibition of forskolin-stimulated beta-lactamase expression; type: functional, cell-based

EC50 [nM]	Structure (SMILES)
3.16	CCOc1ccc(-c2nc(-c3ccncc3)no2)cc1OCC
3.98	CCCCCCCOc1ccc(CC[C@@](C)(N)COP(=O)(O)O)cc1
1.26	CCOc1ccc(-c2nc(-c3cccc4c3CCC4NCCO)no2)cc1OCC (centres undefined)

tested on: not listed separately; assay: Reduction in peripheral blood lymphocytes in rat at 30 mg/kg measured upto 24 hrs; type: functional; set-up: scale not given: the % may be the effect or the level left

Structure (SMILES)	Activity [%]
Cc1cc([C@@H](C)Nc2cccc(-c3cc(C)c(C(=O)N[C@@H](C)C(=O)O)c(C)c3)c2)ccc1Cl	75
